Assay results published in a melting point compilation (Tetko et al.; mined from patent text by program, amines drawn as free bases though some values may be those of a salt).

Compound `O=C(O)c1cc(NCc2ccc([N+](=O)[O-])cc2)ccc1O` has a melting point of 211 to 212 °C.
Work on `CC1CCC(=NN(C)c2ccccc2)c2ncc(C(=O)O)c(=O)n21` (configuration not stated) yielded a melting point of 196 to 198 °C.
With `Clc1cncc(-n2cccc2)c1` the melting point was 70.5 to 72 °C.
Work on `NC12CC=CCC1CCc1ccc(O)cc12` (configuration not stated) yielded a melting point of 156 to 161 °C.
Compound `Cc1ccc(C(=S)Nc2cc(F)ccc2F)cc1` has a melting point of 118 to 121 °C.
For `CCCCCCCCC1(C#N)CCC(c2ccc(-c3ccc(CCCC)cc3)cc2)CC1` (configuration not stated), the melting point was 52 °C.
Work on `O=C(O)/C=C/n1cnc2ccc(OCCO)cc2c1=O` yielded a melting point of 247 to 248 °C.
`CCOC=CC(=O)Nc1cccc(C(=O)O)c1` showed a melting point of 200 to 202 °C.
Work on `CCOC(=O)c1ccc(C(C(N)=O)C(C)c2cc(C)ccc2N2CCCCC2)cc1` (configuration not stated) yielded a melting point of 132 °C.
`N#Cc1ncn2c(C(F)(F)F)cc(-c3ccc(C(F)(F)F)cc3)nc12` gave a melting point of 236 °C.
`CCOC(=O)CC(=O)c1cc2cc(F)c(Cl)cc2nc1Cl` showed a melting point of 112 to 114 °C.
In the case of `CCOC(=O)Nc1ccc2c(c1)C(c1ccccc1Cl)SCCC(=O)N2` (configuration not stated), the melting point is reported as 229 to 231 °C.
In the case of `CC1(C)N=C(c2ccccc2F)c2cc(I)ccc2NC1=O`, the melting point is reported as 212 °C.
Work on `Cc1cccc2c1SC1(CCOC1=O)C2=O` (configuration not stated) yielded a melting point of 98.5 to 99.5 °C.
Compound `COc1ccc(Nc2ccc(O)cc2)c(CO)c1` has a melting point of 96.5 to 97 °C.
`OC1(C#Cc2cccc(Cl)c2)CCCNC1` (configuration not stated) showed a melting point of 113 to 114 °C.
For `CCCCCCCCCOC(=O)Oc1ccc(-c2ccc(C#N)cc2)cc1`, the melting point was 53 to 53.1 °C.
`CCC1(C)CN(c2c(F)c(N)c3c(=O)c(C(=O)O)cn(C4CC4)c3c2OC)CCC1N` (configuration not stated) gave a melting point of 210 °C.
Compound `CCc1cccc2c3c([nH]c12)C(CC)(CC(=O)OC)OCC3NC(N)=O` (configuration not stated) has a melting point of 180 °C.
In the case of `COc1cc2c(cc1OC)CN(CCCOc1ccc(NC(=O)c3cccc4c(=O)c5cccc(OC)c5[nH]c34)c(C)c1)CC2`, the melting point is reported as 160 °C.
`COc1ccccc1COc1ccc(S(=O)(=O)c2ccc(C)nc2Br)cc1` showed a melting point of 76 to 78 °C.
`N#Cc1ccc2c([N+](=O)[O-])cc3c(c2c1)C(CCl)CN3` (configuration not stated) showed a melting point of 231 to 234 °C.
`CCCCCCCCCCCCCCCCCCOc1cc(OCCCOc2cccc(Br)c2)cc(N(CC(=O)OC)CC(=O)OC)c1` gave a melting point of 48 to 50 °C.
Work on `COc1ccc(S(=O)(=O)N(CCO)c2ccccc2/C=C/c2ccncc2)cc1` yielded a melting point of 198 to 200 °C.
Work on `CCCCCOC1CCC(=O)N1` (configuration not stated) yielded a melting point of 42 to 43 °C.
`O=C(NC(C(=O)NC(CO)COCc1ccccc1)C(Cc1ccccc1)C(=O)O)OCc1ccccc1` (configuration not stated) showed a melting point of 100 to 103 °C.
Work on `N#CCc1ccc(CC(=O)O)c(S(N)(=O)=O)c1` yielded a melting point of 125 to 129 °C.
Compound `Oc1ccc2c(c1)OC1(CCCCCC1)O2` has a melting point of 80 to 82 °C.
Compound `CCc1cc(C)cc(C)c1CC(=O)O` has a melting point of 128 to 129 °C.
With `COC(=O)c1cccc(C(=O)c2cc(C(=O)OC)cc(OC)c2OC)c1` the melting point was 160 to 161 °C.
Work on `CN(C)C1CCN(C2c3ccccc3Oc3ccccc32)CC1` yielded a melting point of 92 to 93 °C.
With `CC(=O)NC(C)(C)c1ccc(C(C)O)cc1` (configuration not stated) the melting point was 146 to 149 °C.
For `CCNc1cc(N2CCN(C(=O)OC(C)(C)C)CC2)c(F)cc1[N+](=O)[O-]`, the melting point was 129 to 131 °C.
Compound `CCn1cc(C(=O)O)c(=O)c2cc3oc(C(=O)O)cc3nc21` has a melting point of over 300 °C.
Work on `C=Cn1cc(C(=O)OCC)c(=O)c2cc(F)c(Cl)cc21` yielded a melting point of 146 to 149 °C.
`CCOC(=O)c1ccc(NC(=O)OC(C)(C)C)nn1` showed a melting point of 87 to 88 °C.
`O=[N+]([O-])c1ccc(-c2ccc(-c3cn([C@H]4CN5CCC4CC5)nn3)s2)cn1` gave a melting point of 160 °C.
In the case of `CCOC(=O)NOC(=O)c1ccc(Cl)cc1`, the melting point is reported as 79 °C.
`CN(C)Cc1cc(C(=O)c2ccc3ccccc3c2)cc(C(C)(C)C)c1O` showed a melting point of 162 to 164 °C.
In the case of `O=C(Nc1ccccc1)C1CCc2c(cnc3[nH]ncc23)C1` (configuration not stated), the melting point is reported as over 300 °C.
Compound `CC1NCC(CO)CC1OC(=O)c1ccncc1` (configuration not stated) has a melting point of 126 to 128 °C.
Work on `CNC(=S)C1(c2cccnc2)CCCCC1=CCOc1ccc(O)cc1` (configuration not stated) yielded a melting point of 82 to 88 °C.
